Measurements published in US20160145247A1, “Aminomethyl-Biaryl Derivatives Complement Factor D inhibitors and uses thereof” (NOVARTIS AG, priority 2013, published 2016).

biological target: T1, factor D (Homo sapiens, UniProt P00746); experiment: Human Complement Factor D ELISA Assay; assay type: biochemical; conditions: tested using the assay of Biological Example 1 (ELISA, Ba product quantified); read-out: activity against factor D
T1 construct: made in house; host or cells: E. coli
T1 sequence (P00746 26-253): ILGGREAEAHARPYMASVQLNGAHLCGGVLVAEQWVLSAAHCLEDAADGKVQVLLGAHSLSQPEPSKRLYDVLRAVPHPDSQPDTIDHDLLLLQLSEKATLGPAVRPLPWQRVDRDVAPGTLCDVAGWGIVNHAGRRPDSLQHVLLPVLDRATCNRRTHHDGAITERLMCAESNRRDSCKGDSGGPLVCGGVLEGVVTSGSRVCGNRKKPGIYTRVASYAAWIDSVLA

IC50 | Structure (SMILES)
0.694 µM | CC[N+]1=C(/C=C/C=C/C=C2/N(CCCCCC(=O)NC[C@@]3(F)C[C@@H](C(=O)NCc4cccc(Cl)c4F)N(C(=O)Nc4cn(C(N)=O)c5ccccc45)C3)c3ccc(S(=O)(=O)O)cc3C2(C)C)C(C)(C)c2cc(S(=O)(=O)O)ccc21 [Biological Example 2.2, 2-((1E,3E,5E)-5-(1-(6-((((3S,5S)-1-((1-carbamoyl-1H-indol-3-yl)carbamoyl)-5-((3-chloro-2-fluorobenzyl)carbamoyl)-3-fluoropyrrolidin-3-yl)methyl)amino)-6-oxohexyl)-3,3-dimethyl-5-sulfoindolin-2-ylidene)penta-1,3-dien-1-yl)-1-ethyl-3,3-dimethyl-5-sulfo-3H-indol-1-ium]

biological target: T1, factor D; experiment: factor D inhibition assay of Biological Example 2; assay type: biochemical; conditions: not given

IC50 | Structure (SMILES)
0.016 µM | C[C@@H](N)c1cccc(-c2cc(COc3ccccc3CC(=O)O)cc(NCC3CCCO3)c2F)c1F (stereo partly drawn) [Example 222, 2-(2-((3′-((R)-1-aminoethyl)-2′,6-difluoro-5-(((tetrahydrofuran-2-yl)methyl)amino)-[1,1′-biphenyl]-3-yl)methoxy)phenyl)acetic acid]
0.067 µM | CCC[C@@H](N)c1cccc(-c2cc(COC)cc(COc3ccccc3CC(=O)O)c2)c1 [Example 118, (R)-2-(2-((3′-(1-Aminobutyl)-5-(methoxymethyl)-[1,1′-biphenyl]-3-yl)methoxy)phenyl)acetic acid]
0.149 µM | C[C@@H](N)c1cccc(-c2ccnc(COc3ccccc3CC(=O)O)c2)c1 [Example 180, (R)-2-(2-((4-(3-(1-Aminoethyl)phenyl)pyridin-2-yl)methoxy)phenyl)acetic acid]
0.436 µM | COC[C@@H](N)c1cccc(-c2ccnc(COc3ccccc3CC(=O)O)c2)c1 [Example 184, (S)-2-(2-((4-(3-(1-amino-2-methoxyethyl)phenyl)pyridin-2-yl)methoxy)phenyl)acetic acid]
0.071 µM | C[C@H](N)c1cccc(-c2cc(COc3ccccc3CC(=O)O)cc(OCCF)c2)c1F [Example 214-O]
0.007 µM | NC(CF)c1cccc(-c2cc(COc3ccccc3CC(=O)O)cc(NC[C@@H]3CCCO3)c2)c1F (mixture of isomers) [Example 204-B, 2-(2-((3′-(1-amino-2-fluoroethyl)-2′-fluoro-5-((((S)-tetrahydrofuran-2-yl)methyl)amino)-[1,1′-biphenyl]-3-yl)methoxy)phenyl)acetic acid (mixture of diastereomers)]
0.005 µM | CC(C)n1cc(-c2cc(COc3ccccc3CC(=O)O)cc(-c3cccc(CN)c3)c2)cn1 [Example 209-C]
26.9 µM | CCOC(=O)Cc1ccccc1OCc1cc(NC[C@H]2CCCO2)cc(-c2cccc([C@@H](C)N)c2F)c1 [Example 249, Ethyl 2-(2-((3′-((R)-1-aminoethyl)-2′-fluoro-5-((((R)-tetrahydrofuran-2-yl)methyl)amino)-[1,1′-biphenyl]-3-yl)methoxy)phenyl)acetate]
0.019 µM | CNC(c1cc(COc2ccccc2CC(=O)O)cc(-c2cccc(CN)c2)c1)C(F)(F)F (centres unmarked) [Example 208-A]
0.006 µM | NCc1cccc(-c2cc(CNC(c3ccccc3)C(F)(F)F)cc(COc3ccccc3CC(=O)O)c2)c1 (centres unmarked) [Example 286-E, 2-(2-((3′-(aminomethyl)-5-(((2,2,2-trifluoro-1-phenylethyl)amino)methyl)-[1,1′-biphenyl]-3-yl)methoxy)phenyl)acetic acid]
0.088 µM | NCc1ccnc(-c2cc(COc3ccccc3CC(=O)O)cc(OC[C@H]3CCCO3)c2)c1 [Example 138-B]
0.022 µM | COc1ccc(CC(=O)O)c(NC(=O)c2cccc(-c3cc(F)cc(CN)c3)n2)c1 [Example 21-Q]
0.002 µM | NCc1cccc(-c2cc(CCC3CC3)cc(COc3ccccc3CC(=O)O)c2)c1 [Example 107-C, 2-(2-((3′-(Aminomethyl)-5-(2-cyclopropylethyl)-[1,1′-biphenyl]-3-yl)methoxy)phenyl)acetic acid]
0.033 µM | CCC[C@@H](N)c1cccc(-c2cc(COc3ccccc3CC(=O)O)cc(C3CC3)c2)c1F [Example 202-B, (R)-2-(2-((3′-(1-Aminobutyl)-5-cyclopropyl-2′-fluoro-[1,1′-biphenyl]-3-yl)methoxy)phenyl)acetic acid]
0.007 µM | N[C@H](CF)c1cccc(-c2cc(COc3ccccc3CC(=O)O)cc(NCC3CC3)c2)c1F [Example 216-A]
0.132 µM | Cc1c(CN)cccc1-c1cccc(COc2ccccc2CC(=O)O)c1 [Example 143-C, 2-(2-((3′-(Aminomethyl)-2′-methyl-[1,1′-biphenyl]-3-yl)methoxy)phenyl)acetic acid]
0.013 µM | NCc1cccc(-c2ccnc(COc3ccccc3CC(=O)O)c2)c1 [Example 164, 2-(2-((4-(3-(Aminomethyl)phenyl)pyridin-2-yl)methoxy)phenyl)acetic acid]
0.958 µM | N[C@H](CCO)c1cccc(-c2cccc(C(=O)Nc3ccccc3CC(=O)O)c2)c1 [Example 88, (R)-2-(2-(3′-(1-Amino-3-hydroxypropyl)-[1,1′-biphenyl]-3-ylcarboxamido)phenyl)acetic acid]
0.147 µM | C[C@@H](N)c1cccc(-c2cc(COc3ccccc3CC(=O)O)cc(C(=O)N(C)C)c2)c1F [Example 216-R]

IC50 | Structure (SMILES)
0.009 µM | C[C@@H](N)c1cccc(-c2cc(COc3ccccc3CC(=O)O)cc(N3CCCC3)c2)c1F [Example 216-V]
0.044 µM | Cc1ccc(COc2ccccc2CC(=O)O)cc1-c1cccc(CN)c1F [Example 149, 2-(2-((3′-(Aminomethyl)-2′-fluoro-6-methyl-[1,1′-biphenyl]-3-yl)methoxy)phenyl)acetic acid]
0.024 µM | C[C@@H](N)c1cccc(-c2cc(CNC3CCOC3)cc(COc3ccccc3CC(=O)O)c2)c1F (some centres unmarked) [Example 216-AG]
0.008 µM | C[C@@H](N)c1cccc(-c2cc(COc3ccccc3CC(=O)O)cc(OCc3ccn(C)n3)c2)c1F [Example 214-E]
0.01 µM | C[C@@H](N)c1cccc(-c2cc(CCc3ccn(C)n3)cc(COc3ccccc3CC(=O)O)c2)c1F [Example 218-I, (R)-2-(2-((3′-(1-aminoethyl)-2′-fluoro-5-(2-(1-methyl-1H-pyrazol-3-yl)ethyl)-[1,1′-biphenyl]-3-yl)methoxy)phenyl)acetic acid]
0.047 µM | NCc1cc(F)cc(-c2cc(O)cc(C(=O)Nc3ccccc3CC(=O)O)c2)c1 [Example 60, 2-(2-(3′-(Aminomethyl)-5′-fluoro-5-hydroxy-[1,1′-biphenyl]-3-ylcarboxamido)phenyl)acetic acid]
0.094 µM | NCc1cccc(-c2csc(C(=O)Nc3ccccc3CC(=O)O)n2)c1 [Example 26-B, 2-(2-(4-(3-(Aminomethyl)phenyl)thiazole-2-carboxamido)phenyl)acetic acid]
0.002 µM | NCc1cc(-c2cc(COc3ccccc3CC(=O)O)cc(OC[C@H]3CCCO3)c2)ccn1 [Example 138-A]
0.053 µM | C[C@@H](N)c1cccc(-c2cc(COc3ccccc3CC(=O)O)cc(CN3CCOCC3)c2)c1F [Example 216-AE]
22.3 µM | COc1c(C(=O)Nc2ccccc2CC(=O)O)cccc1-c1cccc(CN)c1 [Example 91, 2-(2-(3′-(Aminomethyl)-2-methoxy-[1,1′-biphenyl]-3-ylcarboxamido)phenyl)acetic acid]
0.005 µM | C[C@@H](N)c1cccc(-c2cc(COc3ccccc3CC(=O)O)cc(N(C)C[C@@H]3CCCO3)c2)c1F [Example 216-H]
1.21 µM | CC[C@@H](N)c1cccc(-c2cccc(COc3ccccc3CC(=O)O)c2)c1 [Example 190-C]
0.006 µM | CCc1cc(COc2ccccc2CC(=O)O)cc(-c2cccc(CN)c2)c1 [Example 104, 2-(2-((3′-(aminomethyl)-5-ethyl-[1,1′-biphenyl]-3-yl)methoxy)phenyl)acetic acid]
0.353 µM | COc1ccc(C(=O)Nc2ccccc2CC(=O)O)cc1-c1cccc(CN)c1 [Example 8-B, 2-(2-(3′-(Aminomethyl)-6-methoxy-[1,1′-biphenyl]-3-ylcarboxamido)phenyl)acetic acid]
0.005 µM | NCc1cccc(-c2cccc(COc3ccccc3CC(=O)O)c2)c1F [Example 138-H]
0.022 µM | C[C@@H](N)c1cccc(-c2cc(COc3ccccc3CC(=O)O)cc(OCCN3CCCC3)c2)c1F [Example 214-G]
40.5 µM | NCc1cccc(-c2ccnc(C(=O)Nc3ccccc3CC(=O)O)c2)c1 [Example 39, 2-(2-(4-(3-(Aminomethyl)phenyl)picolinamido)phenyl)acetic acid]
33.1 µM | COC(=O)Cc1ccccc1NC(=O)c1cccc(-c2cc(CN)ccc2F)c1 [Example 4-A, Methyl 2-(2-(5′-(aminomethyl)-2′-fluoro-[1,1′-biphenyl]-3-ylcarboxamido)phenyl)acetate]
